Data from patent US20250215013A1, “SUBSTITUTED TRICYCLIC COMPOUNDS AS PARP INHIBITORS AND THE USE THEREOF” (IMPACT THERAPEUTICS (SHANGHAI), INC., priority 2022, published 2025).

What was measured:
[1] = molecular target: recombinant poly(ADP-ribose) polymerase 2 (PARP2); assay: PARP2 chemiluminescent assay; type: biochemical; settings: inhibition of PARP2 enzyme activity, chemiluminescence
MDA-MB-436 cells = assay: Growth inhibition assay against BRCA mutant human breast cancer MDA-MB-436 cell line (CCK-8); type: cell-based; settings: Homo sapiens, MDA-MB-436, […], proliferation of MDA-MB-436 cells, 7 days
[2] = molecular target: recombinant poly(ADP-ribose) polymerase 1 (PARP1) (Homo sapiens (Human), UniProt P09874)
Sequence of recombinant poly(ADP-ribose) polymerase 1 (PARP1) (P09874 whole entry): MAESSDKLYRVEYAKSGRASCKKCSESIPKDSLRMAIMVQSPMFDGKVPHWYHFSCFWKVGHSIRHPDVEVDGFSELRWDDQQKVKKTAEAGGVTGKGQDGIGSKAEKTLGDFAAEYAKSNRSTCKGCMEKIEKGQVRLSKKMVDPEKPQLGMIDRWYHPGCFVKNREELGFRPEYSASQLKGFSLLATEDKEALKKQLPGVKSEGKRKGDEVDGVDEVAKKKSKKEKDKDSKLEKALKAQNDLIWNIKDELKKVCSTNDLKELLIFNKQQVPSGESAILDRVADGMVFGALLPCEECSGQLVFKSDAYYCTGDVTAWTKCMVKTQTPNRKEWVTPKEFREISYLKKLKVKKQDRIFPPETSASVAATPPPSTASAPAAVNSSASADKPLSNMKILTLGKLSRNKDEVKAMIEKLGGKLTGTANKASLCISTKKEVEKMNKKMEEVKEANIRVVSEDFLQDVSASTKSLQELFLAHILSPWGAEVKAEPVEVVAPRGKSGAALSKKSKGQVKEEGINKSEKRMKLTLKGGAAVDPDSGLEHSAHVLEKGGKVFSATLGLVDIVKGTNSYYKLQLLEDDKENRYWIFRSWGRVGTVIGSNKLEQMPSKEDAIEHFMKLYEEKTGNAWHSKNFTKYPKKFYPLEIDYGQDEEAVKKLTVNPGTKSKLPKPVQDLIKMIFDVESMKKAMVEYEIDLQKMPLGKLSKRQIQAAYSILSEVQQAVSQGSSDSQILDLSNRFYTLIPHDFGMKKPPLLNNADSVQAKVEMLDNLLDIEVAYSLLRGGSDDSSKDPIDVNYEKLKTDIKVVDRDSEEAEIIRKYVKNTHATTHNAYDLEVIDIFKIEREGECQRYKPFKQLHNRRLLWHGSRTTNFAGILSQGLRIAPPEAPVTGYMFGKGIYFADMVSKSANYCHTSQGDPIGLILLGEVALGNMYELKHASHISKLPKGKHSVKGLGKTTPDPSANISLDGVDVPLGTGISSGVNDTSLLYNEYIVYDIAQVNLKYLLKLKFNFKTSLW

Compound	IC50 [1] [nM]	IC50 (MDA-MB-436 cells) [nM]	IC50 [2] [nM]
CNC(=O)c1ccc(N2CCN(Cc3ccc4c([nH]c(=O)c5cncn54)c3F)CC2)c(F)n1 [Example 55, 7-((4-(2-fluoro-6-(methylcarbamoyl)pyridin-3-yl)piperazin-1-yl)methyl)-6-fluoroimidazo[1,5-a]quinoxalin-4(5H)-one]	776	14	0.47
Cc1nc(C(=O)NC2CC2)ccc1N1CCN(Cc2ccc3c([nH]c(=O)n4ccnc34)c2F)CC1 [Example 65, 8-((4-(2-methyl-6-(cyclopropylcarbamoyl)pyridin-3-yl)piperazin-1-yl)methyl)-7-fluoroimidazo[1,2-c]quinazolin-5(6H)-one]	> 10000	53.8	4.53
CNC(=O)c1ccc(N2CCN(Cc3ccc4c([nH]c(=O)n5ccnc45)c3F)CC2)c(F)n1 [Example 61, 8-((4-(2-fluoro-6-(methylcarbamoyl)pyridin-3-yl)piperazin-1-yl)methyl)-7-fluoroimidazo[1,2-c]quinazolin-5(6H)-one]	7260	17.4	2.23
CNC(=O)c1ccc(N2CCN(Cc3cc(F)c4c(c3)[nH]c(=O)c3cncn34)CC2)c(F)n1 [Example 53, 7-((4-(2-fluoro-6-(methylcarbamoyl)pyridin-3-yl)piperazin-1-yl)methyl)-9-fluoroimidazo[1,5-a]quinoxalin-4(5H)-one]	469	2.01	0.25
CNC(=O)c1ccc(N2CCN(Cc3ccc4c([nH]c(=O)c5cc(C)nn54)c3F)CC2)c(Cl)n1 [Example 151, 7-((4-(2-chloro-6-(methylcarbamoyl)pyridin-3-yl)piperazin-1-yl)methyl)-6-fluoro-2-methylpyrazolo[1,5-a]quinoxalin-4(5H)-one]	1210	1.19	0.5
CNC(=O)c1ccc(N2CCN(Cc3cc(F)c4c(c3)[nH]c(=O)n3cc(C)nc43)CC2)c(F)n1 [Example 137, 8-((4-(2-fluoro-6-(methylcarbamoyl)pyridin-3-yl)piperazin-1-yl)methyl)-2-methyl-10-fluoroimidazo[1,2-c]quinazolin-5(6H)-one]	266	6.85	2.16
CNC(=O)c1ccc2c(n1)OC[C@H]1CN(Cc3ccc4c([nH]c(=O)c5c(C)cnn54)c3F)CCN21 [Example 167, (R)-6-fluoro-3-methyl-7-((8-methylcarbamoyl-1,2,4a,5-tetrahydropyrazino[1,2-d]pyrido[2,3-b][1,4]oxazin-3(4H)-yl)methyl)pyrazolo[1,5-a]quinoxalin-4(5H)-one]	397	18.7	0.33
CNC(=O)c1ccc(N2CCN(Cc3cc4[nH]c(=O)c5cn(C)nc5c4cc3F)CC2)c(F)n1 [Example 91, 7-((4-(2-fluoro-6-(methylcarbamoyl)pyridin-3-yl)piperazin-1-yl)methyl)-8-fluoro-2-methyl-2,5-dihydro-4H-pyrazolo[4,3-c]quinolin-4-one]	942	20.8	4.25
CNC(=O)c1ccc(N2CCN(Cc3ccc4c([nH]c(=O)c5c(C)cnn54)c3F)C[C@H]2C)c(F)n1 [Example 166, (R)-6-fluoro-7-((4-(2-fluoro-6-(methylcarbamoyl)pyridin-3-yl)-3-methylpiperazin-1-yl)methyl)-3-methylpyrazolo[1,5-a]quinoxalin-4(5H)-one]	801	16.2	0.21
[2H]C([2H])([2H])NC(=O)c1ccc(N2CCN(Cc3ccc4c([nH]c(=O)c5c(F)cnn54)c3F)CC2)c(F)n1 [Example 185, 7-((4-(2-fluoro-6-((methyl-d3)carbamoyl)pyridin-3-yl)piperazin-1-yl)methyl)-3,6-difluoropyrazolo[1,5-a]quinoxalin-4(5H)-one]	431	0.78	0.24
CNC(=O)c1ccc(N2CCN(Cc3cc4[nH]c(=O)c5c(F)cnn5c4cc3F)CC2)c(Cl)n1 [Example 184, 7-((4-(2-chloro-6-(methylcarbamoyl)pyridin-3-yl)piperazin-1-yl)methyl)-3,8-difluoropyrazolo[1,5-a]quinoxalin-4(5H)-one]	67.1	2.41	0.5
CNC(=O)c1ccc(N2CCN(Cc3ccc4c([nH]c(=O)c5occc54)c3C)CC2)c(F)n1 [Example 103, 7-((4-(2-fluoro-6-(methylcarbamoyl)pyridin-3-yl)piperazin-1-yl)methyl)-6-methylfuro[2,3-c]quinolin-4(5H)-one]	667	12.4	4.26

The remaining lines, values ahead:

IC50 [1] [nM]	IC50 (MDA-MB-436 cells) [nM]	IC50 [2] [nM]	Compound
2060	19.4	2.42	CNC(=O)c1ccc(N2CCN(Cc3ccc4c(c3)[nH]c(=O)c3c4ncn3C)CC2)c(C)n1 [Example 28, 7-((4-(2-methyl-6-(methylcarbamoyl)pyridin-3-yl)piperazin-1-yl)methyl)-3-methyl-3,5-dihydro-4H-imidazo[4,5-c]quinolin-4-one]
3410	11.9	5.81	CNC(=O)c1ccc(N2CCN(Cc3cc4[nH]c(=O)c5cn(C)nc5c4cc3F)CC2)c(C)n1 [Example 89, 7-((4-(2-methyl-6-(methylcarbamoyl)pyridin-3-yl)piperazin-1-yl)methyl)-8-fluoro-2-methyl-2,5-dihydro-4H-pyrazolo[4,3-c]quinolin-4-one]
2490	61.8	3.39	CNC(=O)c1ccc(N2CCN(Cc3ccc4c(c3)[nH]c(=O)c3nc[nH]c34)CC2)c(C)n1 [Example 25, 7-((4-(2-methyl-6-(methylcarbamoyl)pyridin-3-yl)piperazin-1-yl)methyl)-1,5-dihydro-4H-imidazo[4,5-c]quinolin-4-one]
504	12.2	0.86	CNC(=O)c1ccc(N2CCN(Cc3ccc4c(c3)[nH]c(=O)c3c(C)noc34)CC2)c(C)n1 [Example 47, 7-((4-(2-methyl-6-(methylcarbamoyl)pyridin-3-yl)piperazin-1-yl)methyl)-3-methylisoxazolo[4,5-c]quinolin-4(5H)-one]
3280	3.2	2.45	CNC(=O)c1ccc(N2CCN(Cc3ccc4c(c3)[nH]c(=O)c3cn(C)nc34)CC2)c(C)n1 [Example 9, 7-((4-(2-methyl-6-(methylcarbamoyl)pyridin-3-yl)piperazin-1-yl)methyl)-2-methyl-2,5-dihydro-4H-pyrazolo[4,3-c]quinolin-4-one]
> 10000	53.8	5.94	CNC(=O)c1ccc(N2CCN(Cc3ccc4c(c3)[nH]c(=O)c3[nH]ccc34)CC2)c(F)n1 [Example 99, 7-((4-(2-fluoro-6-(methylcarbamoyl)pyridin-3-yl)piperazin-1-yl)methyl)-3,5-dihydro-4H-pyrrolo[2,3-c]quinolin-4-one]
30.6	8.45	0.9	CNC(=O)c1ccc(N2CCN(Cc3ccc4c(c3)[nH]c(=O)c3c(F)c(C)nn34)CC2)c(C)n1 [Example 51, 7-((4-(2-methyl-6-(methylcarbamoyl)pyridin-3-yl)piperazin-1-yl)methyl)-3-fluoro-2-methylpyrazolo[1,5-a]quinoxalin-4(5H)-one]
